In patent US20250092016A1, “COMPOUNDS AND COMPOSITIONS FOR THE TREATMENT OF CORONAVIRAL RELATED DISEASES” (priority 2021, published 2025):
pIC50: −log10 of the molar value.

Columns and labels:
[1] = target: T1, SARS-CoV-2 main protease (M^pro) (Severe acute respiratory syndrome coronavirus 2, UniProt P0DTD1); assay: Rapid-Fire MS Biochemical Assay measuring Mpro activity (12.5 nM Mpro); conditions: Table 1A, Mpro inhibition, 5 μM substrate peptide, 30 min
[2] = target: T1, SARS-CoV-2 main protease (M^pro); assay: Rapid-Fire MS Biochemical Assay measuring Mpro activity (5 nM Mpro); conditions: Table 1B, Mpro inhibition, 5 μM substrate peptide, 120 min, read-out: Rapid-Fire Assay IC50

| Structure (SMILES) | pIC50 [1] | pIC50 [2] |
| --- | --- | --- |
| N#CC1CN(c2ccccc2)C(=O)N1c1cncc2ccccc12 (racemic) [Compound 1, 3-(isoquinolin-4-yl)-2-oxo-1-phenylimidazolidine-4-carbonitrile] | 7.43 | 6.70 to 7.70 |
| N#CC1CN(c2cccc(Cl)c2)C(=O)N1c1cncc2ccccc12 (racemic) [Compound 2, 1-(3-chlorophenyl)-3-(isoquinolin-4-yl)-2-oxoimidazolidine-4-carbonitrile] | 8.30 | > 7.70 |
| N#CC1CN(c2ccc(C(F)(F)F)cn2)C(=O)N1c1cncc2ccccc12 (racemic) [Compound 3, 3-(isoquinolin-4-yl)-2-oxo-1-(5-(trifluoromethyl)pyridin-2-yl)imidazolidine-4-carbonitrile] | 8.15 | > 7.70 |
| N#CC1CN(c2ccc(C(F)(F)F)cc2)C(=O)N1c1cncc2ccccc12 (racemic) [Compound 4, 3-(isoquinolin-4-yl)-2-oxo-1-(4-(trifluoromethyl)phenyl)imidazolidine-4-carbonitrile] | > 8.30 | > 7.70 |
| N#CC1CN(c2ccc(F)cc2)C(=O)N1c1cncc2ccccc12 (racemic) [Compound 6, 1-(4-fluorophenyl)-3-(isoquinolin-4-yl)-2-oxoimidazolidine-4-carbonitrile] | 7.57 | 6.70 to 7.70 |
| N#CC1CN(c2cccc(F)c2)C(=O)N1c1cncc2ccccc12 (racemic) [Compound 7, 1-(3-fluorophenyl)-3-(isoquinolin-4-yl)-2-oxoimidazolidine-4-carbonitrile] | 8.22 | > 7.70 |
| N#CC1CN(c2ccc(Cl)cn2)C(=O)N1c1cncc2ccccc12 (racemic) [Compound 10, 1-(5-chloropyridin-2-yl)-3-(isoquinolin-4-yl)-2-oxoimidazolidine-4-carbonitrile] | 8.30 | > 7.70 |
| N#C[C@H]1CN(c2ccccc2)C(=O)N1c1cncc2ccccc12 (single isomer, unassigned) [Compound 1a] | 8.05 | > 7.70 |
| N#C[C@@H]1CN(c2ccccc2)C(=O)N1c1cncc2ccccc12 (single isomer, unassigned) [Compound 1b] | 5.19 | < 6.00 |
| N#C[C@H]1CN(c2cccc(Cl)c2)C(=O)N1c1cncc2ccccc12 (single isomer, unassigned) [Compound 2a] | > 8.30 | > 7.70 |
| N#C[C@@H]1CN(c2cccc(Cl)c2)C(=O)N1c1cncc2ccccc12 (single isomer, unassigned) [Compound 2b] | 5.52 | < 6.00 |
| N#CC1CN(c2ccc(Cl)cc2)C(=O)N1c1cncc2ccccc12 (stereo not drawn) [Compound 5, 1-(4-chlorophenyl)-3-(isoquinolin-4-yl)-2-oxoimidazolidine-4-carbonitrile] | > 8.30 | > 7.70 |
| N#CC1CN(c2ccc(F)cn2)C(=O)N1c1cncc2ccccc12 (stereo not drawn) [Compound 8, 1-(5-fluoropyridin-2-yl)-3-(isoquinolin-4-yl)-2-oxoimidazolidine-4-carbonitrile] | 7.11 | 6.70 to 7.70 |
| N#C[C@H]1CN([C@H]2C[C@H](C(F)(F)F)C2)C(=O)N1c1cncc2ccccc12 [Compound 45a, (R)-3-(isoquinolin-4-yl)-2-oxo-1-((1 r,3R)-3-(trifluoromethyl)cyclobutyl)imidazolidine-4-carbonitrile] | – | > 7.70 |
| N#C[C@H]1CN([C@H]2C[C@@H](C(F)(F)F)C2)C(=O)N1c1cncc2ccccc12 [Compound 45b, (R)-3-(isoquinolin-4-yl)-2-oxo-1-((1s,3S)-3-(trifluoromethyl)cyclobutyl)imidazolidine-4-carbonitrile] | – | 6.00 to 6.70 |
| C[C@H]1C[C@H](N2C[C@H](C#N)N(c3cncc4ccccc34)C2=O)C1 [Compound 120b, (R)-3-(isoquinolin-4-yl)-1-((1 r,3R)-3-methylcyclobutyl)-2-oxoimidazolidine-4-carbonitrile] | – | 6.70 to 7.70 |
| N#C[C@@H]1CN([C@H]2CC[C@H](F)CC2)C(=O)N1c1cncc2ccccc12 [Compound 121c, (S)-1-((1 r,4S)-4-fluorocyclohexyl)-3-(isoquinolin-4-yl)-2-oxoimidazolidine-4-carbonitrile] | – | < 6.00 |
| CC(C)[C@H]1C[C@@H](N2C[C@H](C#N)N(c3cncc4ccccc34)C2=O)C1 [Compound 123a, (R)-1-((1s,3S)-3-isopropylcyclobutyl)-3-(isoquinolin-4-yl)-2-oxoimidazolidine-4-carbonitrile] | – | > 7.70 |
| CC(C)[C@H]1C[C@H](N2C[C@H](C#N)N(c3cncc4ccccc34)C2=O)C1 [Compound 123b, (R)-1-((1r,3R)-3-isopropylcyclobutyl)-3-(isoquinolin-4-yl)-2-oxoimidazolidine-4-carbonitrile] | – | > 7.70 |
| CC(C)[C@H]1C[C@@H](N2C[C@@H](C#N)N(c3cncc4ccccc34)C2=O)C1 [Compound 123c, (S)-1-((1s,3R)-3-isopropylcyclobutyl)-3-(isoquinolin-4-yl)-2-oxoimidazolidine-4-carbonitrile] | – | < 6.00 |
| CC(C)[C@H]1C[C@H](N2C[C@@H](C#N)N(c3cncc4ccccc34)C2=O)C1 [Compound 123d, (S)-1-((1r,3S)-3-isopropylcyclobutyl)-3-(isoquinolin-4-yl)-2-oxoimidazolidine-4-carbonitrile] | – | < 6.00 |
| N#C[C@H]1CN([C@H]2C[C@@H](C3CC3)C2)C(=O)N1c1cncc2ccccc12 [Compound 124a, (R)-1-((1s,3S)-3-cyclopropylcyclobutyl)-3-(isoquinolin-4-yl)-2-oxoimidazolidine-4-carbonitrile] | – | > 7.70 |
| N#C[C@H]1CN([C@H]2C[C@H](C3CC3)C2)C(=O)N1c1cncc2ccccc12 [Compound 124b, (R)-1-((1r,3R)-3-cyclopropylcyclobutyl)-3-(isoquinolin-4-yl)-2-oxoimidazolidine-4-carbonitrile] | – | > 7.70 |
| N#C[C@@H]1CN([C@H]2C[C@H](C3CC3)C2)C(=O)N1c1cncc2ccccc12 [Compound 124c, (S)-1-((1r,3S)-3-cyclopropylcyclobutyl)-3-(isoquinolin-4-yl)-2-oxoimidazolidine-4-carbonitrile] | – | < 6.00 |
| N#C[C@@H]1CN([C@H]2C[C@@H](C3CC3)C2)C(=O)N1c1cncc2ccccc12 [Compound 124d, (S)-1-((1s,3R)-3-cyclopropylcyclobutyl)-3-(isoquinolin-4-yl)-2-oxoimidazolidine-4-carbonitrile] | – | < 6.00 |
| N#CC1CN([C@H]2CC[C@H](C(F)(F)F)CC2)C(=O)N1c1cncc2ccccc12 (stereo partly drawn) [Compound 128, 3-(isoquinolin-4-yl)-2-oxo-1-((1 r,4r)-4-(trifluoromethyl)cyclohexyl)imidazolidine-4-carbonitrile] | – | > 7.70 |
| N#C[C@H]1CN([C@H]2CC[C@H](C(F)(F)F)CC2)C(=O)N1c1cncc2ccccc12 [Compound 128a, (R)-3-(isoquinolin-4-yl)-2-oxo-1-((1 r,4R)-4-(trifluoromethyl)cyclohexyl)imidazolidine-4-carbonitrile] | – | > 7.70 |
| N#C[C@@H]1CN([C@H]2CC[C@H](C(F)(F)F)CC2)C(=O)N1c1cncc2ccccc12 [Compound 128b, (S)-3-(isoquinolin-4-yl)-2-oxo-1-((1 r,4R)-4-(trifluoromethyl)cyclohexyl)imidazolidine-4-carbonitrile] | – | < 6.00 |
| CN1CC(N2CC(C#N)N(c3cncc4ccccc34)C2=O)C1 (stereo not drawn) [Compound 132, 3-(isoquinolin-4-yl)-1-(1-methylazetidin-3-yl)-2-oxoimidazolidine-4-carbonitrile] | – | < 6.00 |
